Data: ChEMBL document CHEMBL4308841, “Synthesis, in vitro antiproliferative activity, and kinase inhibitory effects of pyrazole-containing diarylureas and diarylamides” (Eur J Med Chem, 2018)
pIC50: −log10 of the molar value.

What was measured:
HOP-62 [1] = test: Growth inhibition of human HOP62 cells incubated for 48 hrs by sulforhodamine B assay; assay type: functional, cell-based; details: HOP-62, 48 h
OVCAR-3 [2] = test: Growth inhibition of human OVCAR3 cells incubated for 48 hrs by sulforhodamine B assay; assay type: functional, cell-based; details: OVCAR-3, 48 h
SN12C [3] = test: Growth inhibition of human SN12C cells incubated for 48 hrs by sulforhodamine B assay; assay type: functional, cell-based
CCRF-CEM = test: Growth inhibition of human CCRF-CEM cells assessed as cell growth at 0.01 uM incubated for 48 hrs by sulforhodamine B assay relative to control; assay type: functional; details: read-out: Activity
HCC 2998 = test: Growth inhibition of human HCC2998 cells assessed as cell growth at 0.01 uM incubated for 48 hrs by sulforhodamine B assay relative to control; assay type: functional; details: HCC 2998, 48 h, read-out: Activity
MDA-MB-435 = test: Growth inhibition of human MDA-MB-435 cells assessed as cell growth at 0.01 uM incubated for 48 hrs by sulforhodamine B assay relative to control; assay type: functional; details: MDA-MB-435, 48 h, read-out: Activity
SN12C [4] = test: Growth inhibition of human SN12C cells assessed as cell growth at 0.01 uM incubated for 48 hrs by sulforhodamine B assay relative to control; assay type: functional; details: read-out: Activity
MDA-MB-468 = test: Growth inhibition of human MDA-MB-468 cells assessed as cell growth at 0.01 uM incubated for 48 hrs by sulforhodamine B assay relative to control; assay type: functional; details: MDA-MB-468, 48 h, read-out: Activity
NCI-H460 [5] = test: Growth inhibition of human NCI-H460 cells assessed as cell growth at 0.1 uM incubated for 48 hrs by sulforhodamine B assay relative to control; assay type: functional; details: NCI-H460, 48 h, read-out: Activity
SF-295 = test: Growth inhibition of human SF295 cells assessed as cell growth at 0.1 uM incubated for 48 hrs by sulforhodamine B assay relative to control; assay type: functional; details: SF-295, 48 h, read-out: Activity
SNB-19 [6] = test: Growth inhibition of human SNB19 cells assessed as cell growth at 0.1 uM incubated for 48 hrs by sulforhodamine B assay relative to control; assay type: functional; details: SNB-19, 48 h, read-out: Activity
NCI/ADR-RES = test: Growth inhibition of human NCI/ADR-RES cells assessed as cell growth at 0.1 uM incubated for 48 hrs by sulforhodamine B assay relative to control; assay type: functional; details: read-out: Activity
CAKI-1 = test: Growth inhibition of human Caki1 cells assessed as cell growth at 0.1 uM incubated for 48 hrs by sulforhodamine B assay relative to control; assay type: functional; details: CAKI-1, 48 h, read-out: Activity
DU-145 [7] = test: Growth inhibition of human DU145 cells assessed as cell growth at 0.1 uM incubated for 48 hrs by sulforhodamine B assay relative to control; assay type: functional; details: DU-145, 48 h, read-out: Activity
MDA-MB-231 = test: Growth inhibition of human MDA-MB-231 cells assessed as cell growth at 0.1 uM incubated for 48 hrs by sulforhodamine B assay relative to control; assay type: functional; details: MDA-MB-231, 48 h, read-out: Activity
HOP-62 [8] = test: Growth inhibition of human HOP62 cells assessed as cell growth at 1 uM incubated for 48 hrs by sulforhodamine B assay relative to control; assay type: functional; details: HOP-62, 48 h, read-out: Activity
NCI-H322M = test: Growth inhibition of human NCI-H322M cells assessed as cell growth at 1 uM incubated for 48 hrs by sulforhodamine B assay relative to control; assay type: functional; details: read-out: Activity
NCI-H460 [9] = test: Growth inhibition of human NCI-H460 cells assessed as cell growth at 1 uM incubated for 48 hrs by sulforhodamine B assay relative to control; assay type: functional; details: NCI-H460, 48 h, read-out: Activity
COLO 205 = test: Growth inhibition of human COLO205 cells assessed as cell growth at 1 uM incubated for 48 hrs by sulforhodamine B assay relative to control; assay type: functional; details: COLO 205, 48 h, read-out: Activity
SF-268 = test: Growth inhibition of human SF268 cells assessed as cell growth at 1 uM incubated for 48 hrs by sulforhodamine B assay relative to control; assay type: functional; details: SF-268, 48 h, read-out: Activity
SK-MEL-2 = test: Growth inhibition of human SK-MEL-2 cells assessed as cell growth at 1 uM incubated for 48 hrs by sulforhodamine B assay relative to control; assay type: functional; details: SK-MEL-2, 48 h, read-out: Activity
OVCAR-3 [10] = test: Growth inhibition of human OVCAR3 cells assessed as cell growth at 1 uM incubated for 48 hrs by sulforhodamine B assay relative to control; assay type: functional; details: OVCAR-3, 48 h, read-out: Activity
SR = test: Growth inhibition of human SR cells assessed as cell growth at 100 uM incubated for 48 hrs by sulforhodamine B assay relative to control; assay type: functional; details: read-out: Activity
HOP-62 [11] = test: Growth inhibition of human HOP62 cells assessed as cell growth at 100 uM incubated for 48 hrs by sulforhodamine B assay relative to control; assay type: functional; details: HOP-62, 48 h, read-out: Activity
NCI-H226 = test: Growth inhibition of human NCI-H226 cells assessed as cell growth at 100 uM incubated for 48 hrs by sulforhodamine B assay relative to control; assay type: functional; details: NCI-H226, 48 h, read-out: Activity
SF-539 = test: Growth inhibition of human SF539 cells assessed as cell growth at 100 uM incubated for 48 hrs by sulforhodamine B assay relative to control; assay type: functional; details: SF-539, 48 h, read-out: Activity
SNB-19 [12] = test: Growth inhibition of human SNB19 cells assessed as cell growth at 100 uM incubated for 48 hrs by sulforhodamine B assay relative to control; assay type: functional; details: SNB-19, 48 h, read-out: Activity
UACC-257 = test: Growth inhibition of human UACC257 cells assessed as cell growth at 100 uM incubated for 48 hrs by sulforhodamine B assay relative to control; assay type: functional; details: UACC-257, 48 h, read-out: Activity
IGROV-1 = test: Growth inhibition of human IGROV1 cells assessed as cell growth at 100 uM incubated for 48 hrs by sulforhodamine B assay relative to control; assay type: functional; details: IGROV-1, 48 h, read-out: Activity
786-0 = test: Growth inhibition of human 786-0 cells assessed as cell growth at 100 uM incubated for 48 hrs by sulforhodamine B assay relative to control; assay type: functional; details: 786-0, 48 h, read-out: Activity
A498 = test: Growth inhibition of human A498 cells assessed as cell growth at 100 uM incubated for 48 hrs by sulforhodamine B assay relative to control; assay type: functional; details: A498, 48 h, read-out: Activity
DU-145 [13] = test: Growth inhibition of human DU145 cells assessed as cell growth at 100 uM incubated for 48 hrs by sulforhodamine B assay relative to control; assay type: functional; details: DU-145, 48 h, read-out: Activity
[14] = read-out: LC50 (the source's name)
[15] = read-out: pLC50 (the source's name) (converted)

COc1cc(Cl)cc(-c2nn(-c3cccc(NC(=O)Nc4ccc(Cl)c(C(F)(F)F)c4)c3)cc2-c2ccncc2)c1
GI50 (HOP-62 [1]; read-out: GI50): 2.12 µM
CC50 (HOP-62 [1]; [14]): > 100 µM
TGI (HOP-62 [1]; read-out: TGI): 63.2 µM
GI50 (HOP-62 [1]; read-out: pGI50 (converted)): 2.14 µM
CC50 (HOP-62 [1]; [15]): > 100 µM
TGI (HOP-62 [1]; read-out: pTGI (converted)): 6.31 µM
pIC50 (OVCAR-3 [2]): 6.35
GI50 (OVCAR-3 [2]; read-out: GI50): 0.451 µM
CC50 (OVCAR-3 [2]; [14]): 54.6 µM
TGI (OVCAR-3 [2]; read-out: TGI): 25.5 µM
GI50 (OVCAR-3 [2]; read-out: pGI50 (converted)): 4.47 µM
CC50 (OVCAR-3 [2]; [15]): 55 µM
TGI (OVCAR-3 [2]; read-out: pTGI (converted)): 28.8 µM
GI50 (SN12C [3]; read-out: GI50): 1.56 µM
LC50 (SN12C [3]; read-out: LC50): > 100 µM
TGI (SN12C [3]; read-out: TGI): 82.1 µM
GI50 (SN12C [3]; read-out: pGI50 (converted)): 1.55 µM
LC50 (SN12C [3]; read-out: pLC50 (converted)): > 100 µM
TGI (SN12C [3]; read-out: pTGI (converted)): 8.13 µM
growth at 0.01 µM (CCRF-CEM): 97%
growth at 0.01 µM (HCC 2998): 95%
growth at 0.01 µM (MDA-MB-435): 95%
growth at 0.01 µM (SN12C [4]): 98%
growth at 0.01 µM (MDA-MB-468): 92%
growth at 0.1 µM (NCI-H460 [5]): 102%
growth at 0.1 µM (SF-295): 98%
growth at 0.1 µM (SNB-19 [6]): 95%
growth at 0.1 µM (NCI/ADR-RES): 69%
growth at 0.1 µM (CAKI-1): 99%
growth at 0.1 µM (DU-145 [7]): 98%
growth at 0.1 µM (MDA-MB-231): 91%
growth at 1 µM (HOP-62 [8]): 84%
growth at 1 µM (NCI-H322M): 89%
growth at 1 µM (NCI-H460 [9]): 43%
growth at 1 µM (COLO 205): 80%
growth at 1 µM (SF-268): 83%
growth at 1 µM (SK-MEL-2): 84%
growth at 1 µM (OVCAR-3 [10]): 24%
growth at 100 µM (SR): -30%
growth at 100 µM (HOP-62 [11]): -48%
growth at 100 µM (NCI-H226): -29%
growth at 100 µM (SF-539): -78%
growth at 100 µM (SNB-19 [12]): -25%
growth at 100 µM (UACC-257): -86%
growth at 100 µM (IGROV-1): -16%
growth at 100 µM (786-0): -81%
growth at 100 µM (A498): -70%
growth at 100 µM (DU-145 [13]): -71%

COc1cc(Cl)cc(-c2nn(-c3cccc(NC(=O)Nc4ccc(Cl)c(Cl)c4)c3)cc2-c2ccncc2)c1
GI50 (HOP-62 [1]; read-out: GI50): 3.36 µM
CC50 (HOP-62 [1]; [14]): > 100 µM
TGI (HOP-62 [1]; read-out: TGI): 35.1 µM
GI50 (HOP-62 [1]; read-out: pGI50 (converted)): 3.39 µM
CC50 (HOP-62 [1]; [15]): > 100 µM
TGI (HOP-62 [1]; read-out: pTGI (converted)): 35.5 µM
pIC50 (OVCAR-3 [2]): 5.81
GI50 (OVCAR-3 [2]; read-out: GI50): 1.56 µM
CC50 (OVCAR-3 [2]; [14]): > 100 µM
TGI (OVCAR-3 [2]; read-out: TGI): 29.4 µM
GI50 (OVCAR-3 [2]; read-out: pGI50 (converted)): 1.55 µM
CC50 (OVCAR-3 [2]; [15]): > 100 µM
TGI (OVCAR-3 [2]; read-out: pTGI (converted)): 29.5 µM
GI50 (SN12C [3]; read-out: GI50): 3.1 µM
LC50 (SN12C [3]; read-out: LC50): > 100 µM
TGI (SN12C [3]; read-out: TGI): > 100 µM
GI50 (SN12C [3]; read-out: pGI50 (converted)): 3.09 µM
LC50 (SN12C [3]; read-out: pLC50 (converted)): > 100 µM
TGI (SN12C [3]; read-out: pTGI (converted)): > 100 µM
growth at 0.01 µM (CCRF-CEM): 97%
growth at 0.01 µM (HCC 2998): 93%
growth at 0.01 µM (MDA-MB-435): 93%
growth at 0.01 µM (SN12C [4]): 97%
growth at 0.01 µM (MDA-MB-468): 95%
growth at 0.1 µM (NCI-H460 [5]): 100%
growth at 0.1 µM (SF-295): 57%
growth at 0.1 µM (SNB-19 [6]): 90%
growth at 0.1 µM (NCI/ADR-RES): 98%
growth at 0.1 µM (CAKI-1): 102%
growth at 0.1 µM (DU-145 [7]): 97%
growth at 0.1 µM (MDA-MB-231): 96%
growth at 1 µM (HOP-62 [8]): 91%
growth at 1 µM (NCI-H322M): 88%
growth at 1 µM (NCI-H460 [9]): 77%
growth at 1 µM (COLO 205): 91%
growth at 1 µM (SF-268): 88%
growth at 1 µM (SK-MEL-2): 80%
growth at 1 µM (OVCAR-3 [10]): 61%
growth at 100 µM (SR): -26%
growth at 100 µM (HOP-62 [11]): 12%
growth at 100 µM (NCI-H226): 2%
growth at 100 µM (SF-539): -40%
growth at 100 µM (SNB-19 [12]): 10%
growth at 100 µM (UACC-257): -36%
growth at 100 µM (IGROV-1): 8%
growth at 100 µM (786-0): -46%
growth at 100 µM (DU-145 [13]): 13%
